Measurements taken from the NIST ThermoML archive (doi:10.1016/j.jct.2014.06.023).
Values joined by “and” are separate entries in the source; they are usually repeats but may differ in a detail not shown here. Equal entries are not always repeated.

Details: Buoyancy - hydrostatic balance with magnetic suspension - one sinker

FCF [difluoromethane]
Details	mass density
215.35 K, 1103.8 kPa, Liquid	1230.26 kg/m3
215.35 K, 1325.8 kPa, Liquid	1230.63 kg/m3
215.36 K, 1538.7 kPa, Liquid	1230.95 kg/m3
215.36 K, 1697.9 kPa, Liquid	1231.2 kg/m3
215.37 K, 103.26 kPa, Liquid	1228.62 kg/m3
215.37 K, 297.95 kPa, Liquid	1228.9 kg/m3
215.37 K, 703.99 kPa, Liquid	1229.57 kg/m3
215.39 K, 1295 kPa, Liquid	1230.49 kg/m3
224.87 K, 174.37 kPa, Liquid	1202.55 kg/m3
224.87 K, 584.91 kPa, Liquid	1203.31 kg/m3
224.88 K, 1061.9 kPa, Liquid	1204.12 kg/m3
224.89 K, 1060.1 kPa, Liquid	1204.1 kg/m3
224.91 K, 1506.3 kPa, Liquid	1204.87 kg/m3
234.46 K, 1590 kPa, Liquid	1178.28 kg/m3
234.51 K, 797.4 kPa, Liquid	1176.49 kg/m3
234.52 K, 405.74 kPa, Liquid	1175.67 kg/m3
234.55 K, 274.67 kPa, Liquid	1175.3 kg/m3
234.56 K, 1164.8 kPa, Liquid	1177.09 kg/m3
235.12 K, 296.35 kPa, Liquid	1173.64 kg/m3
235.12 K, 647.72 kPa, Liquid	1174.42 kg/m3
235.12 K, 648.42 kPa, Liquid	1174.42 kg/m3
235.12 K, 1119.6 kPa, Liquid	1175.37 kg/m3
235.12 K, 1629.1 kPa, Liquid	1176.43 kg/m3
235.13 K, 296.36 kPa, Liquid	1173.65 kg/m3
235.13 K, 1583.2 kPa, Liquid	1176.31 kg/m3
235.14 K, 1742.1 kPa, Liquid	1176.61 kg/m3
244.28 K, 721.81 kPa, Liquid	1147.83 kg/m3
244.28 K, 1218.8 kPa, Liquid	1148.97 kg/m3
244.29 K, 432.84 kPa, Liquid	1147.12 kg/m3
244.29 K, 1506.2 kPa, Liquid	1149.63 kg/m3
244.3 K, 1507.8 kPa, Liquid	1149.6 kg/m3
244.89 K, 745.03 kPa, Liquid	1145.98 kg/m3
244.89 K, 1636.6 kPa, Liquid	1148.09 kg/m3
244.9 K, 364.35 kPa, Liquid	1145.04 kg/m3
244.9 K, 1266.5 kPa, Liquid	1147.19 kg/m3
244.9 K, 1785 kPa, Liquid	1148.39 kg/m3
244.91 K, 1786.1 kPa, Liquid	1148.39 kg/m3
254.08 K, 382.25 kPa, Gas	10.3656 kg/m3
254.09 K, 214.16 kPa, Gas	5.5491 kg/m3
254.09 K, 313.9 kPa, Gas	8.3508 kg/m3
254.1 K, 104.12 kPa, Gas	2.6275 kg/m3
254.65 K, 795.59 kPa, Liquid	1116.29 kg/m3
254.65 K, 1111.6 kPa, Liquid	1117.17 kg/m3
254.65 K, 1794.7 kPa, Liquid	1119.02 kg/m3
254.66 K, 487.53 kPa, Liquid	1115.4 kg/m3
254.66 K, 1451 kPa, Liquid	1118.05 kg/m3
254.66 K, 1795.2 kPa, Liquid	1119 kg/m3
254.67 K, 1113.8 kPa, Liquid	1117.12 kg/m3
254.67 K, 1449.1 kPa, Liquid	1118.02 kg/m3
263.88 K, 107.72 kPa, Gas	2.6075 kg/m3
263.88 K, 204.78 kPa, Gas	5.0609 kg/m3
263.88 K, 306.27 kPa, Gas	7.74 kg/m3
263.88 K, 401.96 kPa, Gas	10.3885 kg/m3
263.88 K, 506.07 kPa, Gas	13.4247 kg/m3
263.88 K, 571.82 kPa, Gas	15.4369 kg/m3
263.89 K, 71.43 kPa, Gas	1.7159 kg/m3
264.46 K, 1262.6 kPa, Liquid	1086.13 kg/m3
264.46 K, 1771.5 kPa, Liquid	1087.75 kg/m3
264.47 K, 883.24 kPa, Liquid	1084.88 kg/m3
264.47 K, 1555.9 kPa, Liquid	1087.04 kg/m3
264.47 K, 1797.3 kPa, Liquid	1087.79 kg/m3
264.47 K, 1799.4 kPa, Liquid	1087.82 kg/m3
264.48 K, 882.25 kPa, Liquid	1084.85 kg/m3
264.48 K, 1561.7 kPa, Liquid	1087.04 kg/m3
264.49 K, 616.31 kPa, Liquid	1083.92 kg/m3
273.73 K, 101.73 kPa, Gas	2.3681 kg/m3
273.73 K, 312.85 kPa, Gas	7.5636 kg/m3
273.73 K, 513.88 kPa, Gas	12.9426 kg/m3
273.73 K, 711.85 kPa, Gas	18.7582 kg/m3
273.73 K, 817.04 kPa, Gas	22.1108 kg/m3
273.74 K, 224.38 kPa, Gas	5.3352 kg/m3
273.74 K, 416.77 kPa, Gas	10.2856 kg/m3
273.74 K, 614.63 kPa, Gas	15.8288 kg/m3
273.74 K, 771.81 kPa, Gas	20.6433 kg/m3
273.74 K, 824.1 kPa, Gas	22.3391 kg/m3
273.74 K, 876.3 kPa, Liquid	1053.21 kg/m3
273.74 K, 1101.1 kPa, Liquid	1054.06 kg/m3
273.75 K, 1351.5 kPa, Liquid	1054.99 kg/m3
273.76 K, 1582.2 kPa, Liquid	1055.81 kg/m3
283.52 K, 412.99 kPa, Gas	9.7269 kg/m3
283.52 K, 614.51 kPa, Gas	15.0118 kg/m3
283.52 K, 710.61 kPa, Gas	17.6856 kg/m3
283.53 K, 101.75 kPa, Gas	2.2806 kg/m3
283.53 K, 213.32 kPa, Gas	4.8632 kg/m3
283.53 K, 312.42 kPa, Gas	7.2368 kg/m3
283.53 K, 812.63 kPa, Gas	20.6499 kg/m3
283.54 K, 502.33 kPa, Gas	12.0197 kg/m3
283.54 K, 1013.2 kPa, Gas	26.9253 kg/m3 and 26.9235 kg/m3
283.55 K, 911.64 kPa, Gas	23.6652 kg/m3
283.55 K, 1562.5 kPa, Liquid	1020.09 kg/m3
283.56 K, 1156 kPa, Liquid	1018.14 kg/m3
283.56 K, 1382.8 kPa, Liquid	1019.19 kg/m3
293.32 K, 107.46 kPa, Gas	2.3235 kg/m3
293.32 K, 432.29 kPa, Gas	9.7863 kg/m3
293.32 K, 546.17 kPa, Gas	12.5808 kg/m3
293.32 K, 656.65 kPa, Gas	15.3945 kg/m3
293.33 K, 1265.1 kPa, Gas	33.2531 kg/m3
293.33 K, 1397.3 kPa, Gas	37.8678 kg/m3
293.33 K, 2143.9 kPa, Liquid	984.45 kg/m3
293.34 K, 760.28 kPa, Gas	18.1362 kg/m3
293.34 K, 866.25 kPa, Gas	21.0499 kg/m3
293.34 K, 968.81 kPa, Gas	23.9856 kg/m3
293.34 K, 1066.3 kPa, Gas	26.9025 kg/m3
293.34 K, 1161.5 kPa, Gas	29.864 kg/m3
293.34 K, 1757.2 kPa, Liquid	982.24 kg/m3
293.35 K, 1537.9 kPa, Liquid	980.97 kg/m3
293.37 K, 323.39 kPa, Gas	7.2059 kg/m3
293.38 K, 219.26 kPa, Gas	4.8156 kg/m3
